# According to patent US20200093838A1, “METHODS FOR TREATING AND PREVENTING ALLERGIES AND ACUTE ALLERGIC RESPONSES” (priority 2015, published 2020):
# “Also recorded” adds a separate entry of the source.
# Assays:
# [1] = tested on: Cyp11a1; assay: CYP11A1 immunoblot analyses of CD8+ T cells; format: cell-based, mouse; conditions: 100 nM or 1 μM during differentiation in IL-2+IL-4
# Description: J. Allergy Clin. Immunol. 121, 864-871 e864 (2008)). […] Samples were run by sodium dodecyl sulfate polyacrylamide gel electrophoresis (SDS-PAGE) and transferred to nitrocellulose membranes. […] Horseradish peroxidase-conjugated anti-rabbit IgG (GE Healthcare, Hertfordshire, UK) was used to detect CYP11A1 protein. Mouse monoclonal anti-β-actin antibody (Sigma-Aldrich, St. Louis, Mo.) was used as an internal control. Immunoreactive bands were quantified by densitometric quantification of autoradiographs using Image J (NIMH, Bethesda, Md.), and expressed as relative CYP11A1 normalized to β-actin (Sigma-Aldrich, St. Louis, Mo.).
# [2] = tested on: CD4+ T cells from steroid-resistant asthmatics; conditions: 500 nM; cited from earlier work
# [3] = tested on: Gata3; assay: qPCR gene expression of Gata3 in CD8+ T cells; format: cell-based, mouse; conditions: IL-4 and 1,25D3 present during CD8+ T-cell differentiation
# Description: (§1) J. Allergy Clin. Immunol. 121, 864-871 e864 (2008)).
# [4] = tested on: CD8+ T cells; assay: Intracellular staining (flow cytometry) of IFN-γ and IL-13 in CD8+ T cells differentiated in IL-2 or IL-2+IL-4; format: cell-based, mouse
# Protocol: as §1
# Flow cytometry analyses: For intracellular staining, 1×10^6/ml cells were washed twice with PBS containing 1% BSA, stimulated with 1 μg/ml […] in the presence of 2 μM monensin at 37° C. for 4 hours. After fixation with 4% paraformaldehyde (Electron Microscopy Sciences, Hatfield, Pa.) and permeabilization with 0.1% saponin (Sigma-Aldrich, St. Louis, Mo.), cells were washed twice with PBS containing 1% BSA, then incubated with anti-mouse CD16/CD32 (2.4G2, BD Bioscience, San Jose, Calif.) at 4° C. for 5 minutes, then stained with FITC labeled anti-mouse IFN-γ (XMG 1.2, eBioscience, San Diego, Calif.) and PE-labeled anti-mouse IL-13 (eBio13A, eBioscience, San Diego, Calif.). […] J. Allergy Clin. Immunol. 121, 864-871 e864 (2008)).
# [5] = tested on: Cyp11a1; assay: ELISA for pregnenolone in supernatants of CD8+ T cells (CYP11A1 enzymatic activity); format: cell-based, mouse; conditions: cells cultured in the presence of 1,25D3 (100 nM or 1 μM)
# Description: as §1
# [6] = tested on: CD8+ T cells; assay: Cell viability (total cell numbers) during CD8+ T cell differentiation; format: cell-based, mouse; conditions: IL-2 or IL-2+IL-4; 100 nM or 1 μM; days 0 and 4
# Description: Data (mean±SEM) are from five experiments. **p<0.01 compared to the IL-2 group on day 4.
# as §1
# [7] = tested on: sensitized and challenged CD8-deficient mice; assay: Secondary allergen challenge model with adoptive transfer: lung histology (PAS); format: in vivo, mouse; conditions: recipients of 1,25D3-treated CD8+ T cells
# Protocol: (§2) 190, 4056-4065 (2013).; Ohnishi, H., et al. […] J. Allergy Clin. Immunol. 121, 864-871 e864 (2008)) with some modifications. CD8-deficient mice were sensitized with 20 μg of OVA (Calbiochem, La Jolla, Calif.) emulsified in 2.25 mg of alum (AlumImuject; Pierce, Rockford, Ill.) on days 0 and 14 by intraperitoneal injection. […] Omron Healthcare, Kyoto, JP). […] Airway function was measured and samples were collected 48 hours after the secondary challenge. […] Am. J. Respir. Crit. Care Med. 163, 173-184 (2001)). Lung histology: […] Paraffin sections (5-μm thick) were stained with periodic acid-Schiff (PAS).
# [8] = tested on: sensitized and challenged CD8-deficient mice; assay: Secondary allergen challenge model with adoptive transfer of 1,25D3-treated CD8+ T cells: airway function (AHR); format: in vivo, mouse; conditions: transfer of IL-2-differentiated CD8+ T cells cultured with 1,25D3 (100 nM or 1 μM)
# Protocol: as §2, with “(2001)).” for “(2001)). Lung histology:”, “J. Allergy Clin. Immunol. 121, 864-871 e864 (2008)) by measuring changes in airway resistance (RL) in response to increasing doses of inhaled methacholine (MCh, Sigma-Aldrich, St. Louis, Mo.). Data” for “Paraffin sections (5-μm thick)”, “presented as percentage change from the baseline RL values after saline inhalation.” for “stained with periodic acid-Schiff (PAS).”
# [9] = tested on: Cyp11a1; assay: qPCR gene expression of Cyp11a1 in CD8+ T cells; format: cell-based, mouse; conditions: 100 nM or 1 μM during differentiation in IL-2+IL-4
# Description: as §1
# [10] = tested on: Tbx21; assay: qPCR gene expression of Tbx21 in CD8+ T cells; format: cell-based, mouse; conditions: IL-4 and 1,25D3 present during CD8+ T-cell differentiation
# Description: as §1
# [11] = tested on: sensitized and challenged CD8-deficient mice; assay: Secondary allergen challenge model with adoptive transfer: bronchoalveolar lavage (BAL) fluid analyses; format: in vivo, mouse
# Protocol: as §2, with “Bronchoalveolar lavage (BAL) fluid analyses: After measurement of AHR, lungs were lavaged via the tracheal tube with 1 ml of HBSS.” for “Lung histology:”, “J. Allergy Clin. Immunol. 121, 864-871 e864 (2008)). […] J. Allergy Clin. Immunol. 121, 864-871 e864 (2008)).” for “Paraffin sections (5-μm thick) were stained with periodic acid-Schiff (PAS).”
# [12] = tested on: Cyp11a1; conditions: inhibition of the enzymatic activity of CYP11A1; cited from earlier work
# [13] = tested on: sensitized and challenged CD8-deficient mice; conditions: inhibition of the enzymatic activity of CYP11A1; cited from earlier work
# [14] = IL-2 + IL-4 + TCR + VitD (100 nM)
# [15] = IL-2 + IL-4 + TCR + VitD (100 nM), listed as VitD
# [16] = IL-2 + IL-4 + TCR + VitD (1 μM)
# [17] = cultured with SIINFEKL and IL-2+IL-4, 1,25D3 100 nM, 1 μM during differentiation
# [18] = compared to recipients of untreated cells, 1,25D3 100 nM or 1 μM
smiles,measurement,setting,value
"C=C1/C(=C\C=C2/CCC[C@]3(C)[C@@H]([C@H](C)CCCC(C)(C)O)CC[C@@H]23)C[C@@H](O)C[C@@H]1O [1,25D3, 1,25-dihydroxy vitamin D3]",CYP11A1 protein levels,[1],decreased
same,in vitro effectiveness in CD4+ T cells from steroid-resistant asthmatics,[2],effective
same,Gata3 gene expression,[3],only marginally altered; also recorded: affected
same,cytokine profiles (IFN-γ and IL-13) of differentiated CD8+ T cells,"[4]; 1,25D3 (100 nM or 1 μM) added only during antigen (SIINFEKL) re-stimulation phase, last 4 hours, IL-2+IL-4",does not alter; also recorded: unaffected
same,"% of positive cells, IFN-γ+",[4]; [14],24.5±4.8%
same,"% of positive cells, IFN-ν+ IL-13+",[4]; [14],4%
same,"% of positive cells, IFN-ν− IL-13−",[4]; [14],55.1%
same,"% of positive cells, IL-13+",[4]; [14],11.3±4.8%
same,"% of positive cells, IFN-γ+",[4]; [15],24.5%
same,"% of positive cells, IL-13+",[4]; [15],11.3%
same,"% of positive cells, IFN-γ+",[4]; [16],30.6%
same,"% of positive cells, IFN-ν+ IL-13+",[4]; [16],3.5%
same,"% of positive cells, IFN-ν− IL-13−",[4]; [16],53.9%
same,"% of positive cells, IL-13+",[4]; [16],8.3%
same,"% of positive cells, IFN-γ+",[4]; IL-2 + IL-4 + VitD (100 nM),2.2%
same,"% of positive cells, IFN-ν+ IL-13+",[4]; IL-2 + IL-4 + VitD (100 nM),0.2%
same,"% of positive cells, IFN-ν− IL-13−",[4]; IL-2 + IL-4 + VitD (100 nM),92.7%
same,"% of positive cells, IL-13+",[4]; IL-2 + IL-4 + VitD (100 nM),4.6%
same,"% of positive cells, IFN-γ+",[4]; IL-2 + IL-4 + VitD (1 μM),2.7%
same,"% of positive cells, IFN-ν+ IL-13+",[4]; IL-2 + IL-4 + VitD (1 μM),0.2%
same,"% of positive cells, IFN-ν− IL-13−",[4]; IL-2 + IL-4 + VitD (1 μM),92.9%
same,"% of positive cells, IL-13+",[4]; IL-2 + IL-4 + VitD (1 μM),3.8%
same,"% of positive cells, IFN-γ+",[4]; IL-2 + TCR + VitD (100 nM),76.8%
same,"% of positive cells, IFN-ν+ IL-13+",[4]; IL-2 + TCR + VitD (100 nM),0.4%
same,"% of positive cells, IFN-ν− IL-13−",[4]; IL-2 + TCR + VitD (100 nM),22.6%
same,"% of positive cells, IL-13+",[4]; IL-2 + TCR + VitD (100 nM),0.1%
same,"% of positive cells, IFN-γ+",[4]; IL-2 + TCR + VitD (1 μM),76.2%
same,"% of positive cells, IFN-ν+ IL-13+",[4]; IL-2 + TCR + VitD (1 μM),0.4%
same,"% of positive cells, IFN-ν− IL-13−",[4]; IL-2 + TCR + VitD (1 μM),23.7%
same,"% of positive cells, IL-13+",[4]; IL-2 + TCR + VitD (1 μM),0.1%
same,"% of positive cells, IFN-γ+",[4]; IL-2 + VitD (100 nM),3.1%
same,"% of positive cells, IFN-ν+ IL-13+",[4]; IL-2 + VitD (100 nM),0%
same,"% of positive cells, IFN-ν− IL-13−",[4]; IL-2 + VitD (100 nM),96.8%
same,"% of positive cells, IL-13+",[4]; IL-2 + VitD (100 nM),0.2%
same,"% of positive cells, IFN-γ+",[4]; IL-2 + VitD (1 μM),4.3%
same,"% of positive cells, IFN-ν+ IL-13+",[4]; IL-2 + VitD (1 μM),0%
same,"% of positive cells, IFN-ν− IL-13−",[4]; IL-2 + VitD (1 μM),95.8%
same,"% of positive cells, IL-13+",[4]; IL-2 + VitD (1 μM),0.2%
same,IFN-γ+ cells (change),[4]; [17],increase
same,percentage of IL-13+ cells (change),[4]; [17],dose-dependent decrease
same,IFN-γ-producing capacity of Tc1 cells,"[4]; differentiated in IL-2 alone, 1,25D3 added during differentiation",not affected
same,pregnenolone levels in supernatants (CYP11A1 enzymatic activity),[5],markedly reduced; also recorded: decreased
same,effect on cell viability,[6],not altered; also recorded: no significant effect
same,inflammation in lung sections,[7],less inflammation
same,numbers of PAS+ mucus-containing goblet cells,[7],prevents; also recorded: significantly decreased numbers
same,airway hyperresponsiveness (AHR),[8],fails to induce; also recorded: failed to restore
same,CYP11A1 transcript levels,[9],decreased
same,Tbx21 gene expression,[10],only marginally altered; also recorded: affected
same,IL-4 level in BAL fluid,[11]; [18],decreased; also recorded: significantly lower
same,IL-5 level in BAL fluid,[11]; [18],decreased; also recorded: significantly lower
same,IL-13 level in BAL fluid,[11]; [18],decreased; also recorded: significantly lower
same,airway inflammation (cell composition in BAL fluid),"[11]; transfer of IL-2-differentiated CD8+ T cells cultured with 1,25D3 (100 nM or 1 μM)",failed to restore
"CCC1(c2ccc(N)cc2)CCC(=O)NC1=O (stereo not drawn) [AMG, aminoglutethimide]",conversion of CD8+ T cells to IL-13 production,[12],inhibitory effects
same,lung allergic responses in sensitized and challenged CD8-deficient mice,[13],failure to restore
